{"source": "ChEMBL document CHEMBL1136068", "about": "(Bioorg Med Chem Lett, 2003)", "key": {"Progesterone receptor": {"molecular_target": "T1, Progesterone receptor (Homo sapiens, UniProt P06401)", "T1 sequence (P06401 whole entry)": "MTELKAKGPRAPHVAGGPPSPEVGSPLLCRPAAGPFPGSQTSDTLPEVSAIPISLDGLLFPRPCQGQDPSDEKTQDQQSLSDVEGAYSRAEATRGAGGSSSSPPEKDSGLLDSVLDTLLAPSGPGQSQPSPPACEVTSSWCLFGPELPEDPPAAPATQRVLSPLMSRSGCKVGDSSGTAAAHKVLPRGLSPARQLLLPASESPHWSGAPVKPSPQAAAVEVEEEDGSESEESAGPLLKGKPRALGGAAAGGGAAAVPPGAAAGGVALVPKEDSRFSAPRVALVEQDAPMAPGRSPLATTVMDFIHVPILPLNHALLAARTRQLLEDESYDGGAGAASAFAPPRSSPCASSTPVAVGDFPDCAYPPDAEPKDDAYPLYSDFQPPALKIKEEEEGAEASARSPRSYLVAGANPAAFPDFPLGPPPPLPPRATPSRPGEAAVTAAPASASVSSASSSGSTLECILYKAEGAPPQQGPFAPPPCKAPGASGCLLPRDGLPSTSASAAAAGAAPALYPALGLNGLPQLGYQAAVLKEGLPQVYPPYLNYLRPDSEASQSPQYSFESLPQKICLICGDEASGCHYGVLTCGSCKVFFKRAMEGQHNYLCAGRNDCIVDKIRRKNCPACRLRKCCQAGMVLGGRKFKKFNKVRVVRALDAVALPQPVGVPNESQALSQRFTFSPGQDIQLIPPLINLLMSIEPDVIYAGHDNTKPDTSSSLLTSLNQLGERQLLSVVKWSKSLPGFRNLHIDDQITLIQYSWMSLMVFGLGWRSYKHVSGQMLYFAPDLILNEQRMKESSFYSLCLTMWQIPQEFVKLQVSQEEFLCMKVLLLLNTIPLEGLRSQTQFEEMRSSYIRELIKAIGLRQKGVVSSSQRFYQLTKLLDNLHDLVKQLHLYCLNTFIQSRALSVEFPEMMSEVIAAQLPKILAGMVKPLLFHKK", "test": "Binding affinity for human progesterone receptor; […]"}, "Estrogen receptor": {"molecular_target": "Estrogen receptor (Homo sapiens, UniProt Q92731+P03372)", "test": "Antagonist activity at estrogen (hER) receptor; Efficacy <20% and/or potency >[…] nM", "assay_type": "functional"}, "Glucocorticoid receptor": {"molecular_target": "T2, Glucocorticoid receptor (Homo sapiens, UniProt P04150)", "T2 sequence (P04150 whole entry)": "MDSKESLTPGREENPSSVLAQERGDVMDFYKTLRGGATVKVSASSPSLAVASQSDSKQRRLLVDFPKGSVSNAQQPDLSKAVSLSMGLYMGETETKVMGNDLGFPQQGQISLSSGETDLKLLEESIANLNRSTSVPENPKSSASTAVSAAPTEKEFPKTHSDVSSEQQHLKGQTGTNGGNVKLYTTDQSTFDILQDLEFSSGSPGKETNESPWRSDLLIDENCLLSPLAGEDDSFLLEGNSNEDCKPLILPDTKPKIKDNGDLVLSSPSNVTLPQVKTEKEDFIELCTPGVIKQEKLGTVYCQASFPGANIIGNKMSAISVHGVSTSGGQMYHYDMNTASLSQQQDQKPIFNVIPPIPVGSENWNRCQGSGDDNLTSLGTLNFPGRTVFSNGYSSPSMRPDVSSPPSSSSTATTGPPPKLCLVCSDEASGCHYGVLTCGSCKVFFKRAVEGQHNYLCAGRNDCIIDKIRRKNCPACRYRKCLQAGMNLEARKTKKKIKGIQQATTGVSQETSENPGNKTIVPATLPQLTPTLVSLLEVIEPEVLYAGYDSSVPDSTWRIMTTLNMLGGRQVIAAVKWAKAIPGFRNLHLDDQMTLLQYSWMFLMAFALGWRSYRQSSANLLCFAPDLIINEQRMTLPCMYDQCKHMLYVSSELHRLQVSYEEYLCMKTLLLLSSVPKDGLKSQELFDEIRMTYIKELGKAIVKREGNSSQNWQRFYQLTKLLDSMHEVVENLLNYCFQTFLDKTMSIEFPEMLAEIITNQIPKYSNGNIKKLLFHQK", "test": "Antagonist activity at glucocorticoid receptor", "assay_type": "functional"}, "Androgen receptor": {"molecular_target": "T3, Androgen receptor (Homo sapiens, UniProt P10275)", "T3 sequence (P10275 whole entry)": "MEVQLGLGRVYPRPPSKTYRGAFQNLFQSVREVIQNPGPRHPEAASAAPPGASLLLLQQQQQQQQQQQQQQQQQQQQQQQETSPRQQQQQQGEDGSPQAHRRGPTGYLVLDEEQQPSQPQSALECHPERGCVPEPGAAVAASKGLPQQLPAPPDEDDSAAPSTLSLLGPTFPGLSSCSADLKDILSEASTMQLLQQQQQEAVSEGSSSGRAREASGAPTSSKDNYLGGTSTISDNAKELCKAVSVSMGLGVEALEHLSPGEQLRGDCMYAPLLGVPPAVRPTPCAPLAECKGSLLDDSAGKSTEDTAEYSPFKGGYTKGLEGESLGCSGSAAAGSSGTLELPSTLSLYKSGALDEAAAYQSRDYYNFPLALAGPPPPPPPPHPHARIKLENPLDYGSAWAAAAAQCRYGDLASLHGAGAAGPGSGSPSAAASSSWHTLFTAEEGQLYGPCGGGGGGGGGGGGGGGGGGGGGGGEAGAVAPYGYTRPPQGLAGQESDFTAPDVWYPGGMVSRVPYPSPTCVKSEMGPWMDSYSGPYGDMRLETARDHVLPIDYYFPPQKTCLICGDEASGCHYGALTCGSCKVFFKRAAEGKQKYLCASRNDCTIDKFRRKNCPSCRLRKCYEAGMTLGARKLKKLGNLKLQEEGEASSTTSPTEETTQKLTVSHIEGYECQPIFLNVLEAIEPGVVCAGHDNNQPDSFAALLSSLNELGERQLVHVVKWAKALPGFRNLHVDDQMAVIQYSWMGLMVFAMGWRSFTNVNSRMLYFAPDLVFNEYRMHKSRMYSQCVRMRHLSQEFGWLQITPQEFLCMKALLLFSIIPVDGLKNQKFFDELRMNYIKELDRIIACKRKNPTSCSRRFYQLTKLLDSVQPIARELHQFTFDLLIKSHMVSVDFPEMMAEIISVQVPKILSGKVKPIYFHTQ", "description": "Antagonist activity against Androgen receptor"}}, "note": "pIC50, pKi: −log10 of the molar value. The source made the active and inactive calls. No cut-off for these calls is given here."}
{"smiles": "CC(C)=C/C=C1\\Oc2ccc(F)cc2-c2ccc3c(c21)C(C)=CC(C)(C)N3", "values": [{"measurement": "pKi", "setting": "Progesterone receptor", "result": 8.60}]}
{"smiles": "CC/C(C)=C1\\Oc2ccc(F)cc2-c2ccc3c(c21)C(C)=CC(C)(C)N3", "values": [{"measurement": "Efficacy", "setting": "Estrogen receptor", "result": "inactive"}, {"measurement": "pIC50", "setting": "Glucocorticoid receptor", "result": 6.49}]}
{"smiles": "CC(=O)C[C@]1(C(C)=O)CC[C@H]2C3C[C@H](C)C4=CC(=O)CC[C@]4(C)[C@H]3CC[C@@]21C", "note": "(stereo not given in full)", "values": [{"measurement": "pIC50", "setting": "Androgen receptor", "result": 8.21}]}
{"smiles": "CC1=CC(C)(C)Nc2ccc3c(c21)/C(=C/Br)Oc1ccc(F)cc1-3", "values": [{"measurement": "pIC50", "setting": "Androgen receptor", "result": 6.60}]}
